System: monocrotaline-induced pulmonary hypertension
Test: Monocrotaline-induced pulmonary hypertension in rats (haemodynamics, right heart hypertrophy, bleeding)
Format: in vivo, rat
Conditions: for bleeding complications in treated animals: bleeding with fatal outcome or need to euthanize; for effect on haemodynamics in the right heart and pulmonary circulation and right heart hypertrophy (in words): comparison of Example 1, enoxaparin and warfarin
Text: The monocrotaline-induced pulmonary hypertension in rats is a widely used animal model of pulmonary arterial hypertension. The pyrrolizidine alkaloid monocrotaline is metabolized after subcutaneous injection to toxic monocrotaline pyrrole in the liver and leads within a few days to endothelial damage and coagulation activation and thrombosis formation in the pulmonary circulation, followed by remodelling of the small pulmonary arteries (media hypertrophy, de-novo muscularization). A single subcutaneous injection is sufficient to induce pronounced pulmonary hypertension in rats within 4 weeks.
Male Sprague-Dawley rats are used for the model. On day 0, the animals receive a subcutaneous injection of monocrotaline 60 mg/kg. The treatment of the animals starts before the monocrotaline injection and extends over a period of at least 28 days. At the end of the study, the animals undergo haemodynamic investigations, and the arterial and central venous oxygen saturation is measured. The rats are initially anaesthetized with pentobarbital 60 mg/kg for the haemodynamic measurement. The animals are then tracheotomized and artificially ventilated (frequency: 60 breaths/min; inspiration to expiration ratio: 50:50; positive end-expiratory pressure: 1 cm H2O; tidal volume: 10 ml/kg body weight; FIO2: 0.5). The anaesthesia is maintained by isoflurane inhalation anaesthesia. The systemic blood pressure is measured in the left carotid artery by means of a Millar microtip catheter. A polyethylene catheter is advanced through the right jugular vein into the right ventricle for determining the right ventricular pressure. The cardiac output is measured by thermodilution. Following the haemodynamics, the heart is removed and the ratio of right to left ventricle including septum is determined.

**Q.** enoxaparin [reference compound] was tested. Which CO (Table 2, 20 mg/kg/d) did it give?
**A.** 77 mL/min

**Q.** What about the “RV/(LV + S)” value (Table 2, 20 mg/kg/d) of the same molecule?
**A.** 0.56

**Q.** What about the RVEDP (Table 2, 20 mg/kg/d) of the same molecule?
**A.** 6 mmHg

**Q.** And the RVPmax (Table 2, 20 mg/kg/d)?
**A.** 85 mmHg

**Q.** And the dP/dtmax (Table 2, 20 mg/kg/d)?
**A.** 4644 mmHg/s

**Q.** What about the “bleeding complications in treated animals” value (“bleeding complications” for short) of the same molecule?
**A.** half of the animals

**Q.** And the “effect on haemodynamics in the right heart and pulmonary circulation and right heart hypertrophy (in words)” value (“effect on haemodynamics” for short)?
**A.** no effect

**Q.** `CC(=O)CC(c1ccccc1)c1c(O)c2ccccc2oc1=O` (stereo not shown) [Warfarin, warfarin, reference compound] was tested. Which CO (Table 2, 0.1-0.2 mg/kg/d) did it give?
**A.** 100 mL/min

**Q.** What about the “RV/(LV + S)” value (Table 2, 0.1-0.2 mg/kg/d) of the same molecule?
**A.** 0.46

**Q.** What about the RVEDP (Table 2, 0.1-0.2 mg/kg/d) of the same molecule?
**A.** 4 mmHg

**Q.** What about the RVPmax (Table 2, 0.1-0.2 mg/kg/d) of the same molecule?
**A.** 64 mmHg

**Q.** What about the dP/dtmax (Table 2, 0.1-0.2 mg/kg/d) of the same molecule?
**A.** 4535 mmHg/s

**Q.** What about the “bleeding complications” value of the same molecule?
**A.** half of the animals

**Q.** What about the “effect on haemodynamics” value of the same molecule?
**A.** significantly smaller effect

**Q.** With `O=C(NC[C@H]1CN(c2ccc(N3CCOCC3=O)cc2)C(=O)O1)c1ccc(Cl)s1` [Example 1, 5-chloro-N-({(5S)-2-oxo-3-[4-(3-oxomorpholin-4-yl)phenyl]-1,3-oxazolidin-5-yl}methyl)thiophene-2-carboxamide] as the molecule, how does the RVEDP (Table 1, 3-9 mg/kg/d) read?
**A.** 4 mmHg

**Q.** What about the dP/dtmax (Table 1, 3-9 mg/kg/d) of the same molecule?
**A.** 2715 mmHg/s

**Q.** What about the RVPmax (Table 1, 3-9 mg/kg/d, at least 28 days treatment) of the same molecule?
**A.** 55 mmHg

**Q.** What about the CO (Table 1, 3-9 mg/kg/d, cardiac output) of the same molecule?
**A.** 117 mL/min

**Q.** What about the “RV/(LV + S)” value (Table 1, 3-9 mg/kg/d, weight of right heart relative to left heart including septum) of the same molecule?
**A.** 0.41

**Q.** What about the CO (Table 1, 10-30 mg/kg/d) of the same molecule?
**A.** 117 mL/min

**Q.** And the “RV/(LV + S)” value (Table 1, 10-30 mg/kg/d)?
**A.** 0.33

**Q.** What about the RVEDP (Table 1, 10-30 mg/kg/d) of the same molecule?
**A.** 3 mmHg

**Q.** And the RVPmax (Table 1, 10-30 mg/kg/d)?
**A.** 44 mmHg

**Q.** And the dP/dtmax (Table 1, 10-30 mg/kg/d)?
**A.** 2244 mmHg/s

**Q.** What about the CO (Table 2, 10-30 mg/kg/d) of the same molecule?
**A.** 125 mL/min

**Q.** What about the “RV/(LV + S)” value (Table 2, 10-30 mg/kg/d) of the same molecule?
**A.** 0.38

**Q.** What about the RVEDP (Table 2, 10-30 mg/kg/d) of the same molecule?
**A.** 3 mmHg

**Q.** And the RVPmax (Table 2, 10-30 mg/kg/d)?
**A.** 57 mmHg

**Q.** What about the dP/dtmax (Table 2, 10-30 mg/kg/d) of the same molecule?
**A.** 3300 mmHg/s

**Q.** And the “bleeding complications” value?
**A.** no bleedings

**Q.** And the “effect on haemodynamics” value?
**A.** better activity

Reference: US20100144728A1, “Oxazolidinone For The Treatment And Prophylaxis Of Pulmonary Hypertension” (Bayer Schering Pharma AG, priority 2007, published 2010)
